One data set relates to RD cells. In words: phage binding to RD cells. Format: cell-based. How it is done: Figure 1 Validation of selected phages binding on RMS cells in vivo and in vitro. (A) Quantification of binding of single phage clones to different cell lines. Six phages selected from in vitro and in vivo screenings were validated individually in binding assays to three RMS cell lines (embryonal RMS: RD; alveolar RMS: Rh30 and Rh4) as well as to normal myoblasts (SkMC-c) and fibroblast cells (MRC-5). Phage clones are ordered according to the frequency of occurrence. Binding was calculated over non-recombinant T7, depicted are mean values ± SD of three independent experiments. (B) RMS-P3 and RMS-P6 phage distribution in RD mouse xenografts. Homing of phages to tumor was compared to control organs. Binding was normalized over phage T7 and tissue weight. Mean values ± SD of four independent experiments are shown. Numerical values for tumor to organ ratios are indicated above the bars. (C) Validation of RMS-P3 peptide sequence by competition of phage binding. 10^6 RD cells were incubated for 30 min with increasing concentrations of RMS-P3 peptide ([…]) or control peptide ([…]). Then, phages (10^9 pfu) were added for 1 h. Phage binding was normalized over non-recombinant T7. Data are presented as percentage of maximal phage binding obtained in the absence of synthetic peptide. Error bars indicate mean ± SD from three independent experiments. […]
Figure 3 Identification of the receptor for RMS-P3. […] Phage binding was quantified over non-recombinant T7 and compared to the binding of wild type phage RMS-P3. […] After tail vein injection of both FITC-RMS-P3/RR or control peptide RMS-P3/AA and circulation of 10 min, mice were perfused, tumors and control organs were dissected and FITC-peptide distribution (green) was evaluated in cryosections under fluorescence microscopy. […] (C) Expression of proprotein convertases (PCs) measured by microarray profiling of 9 RMS cell lines and 30 RMS biopsy samples. […] Immature membrane-bound furin was detected at 103 kD, mature furin at 97 kD. […]

In data set [1] the test system is RD xenograft tumors and control organs. In words: FITC-peptide distribution in xenograft mice. To be noted: RD xenografts, i.v. The data set is classed as in vivo, mouse. On the procedure: Figure 2 FITC-labeled RMS-P3 binding in vitro and distribution in vivo. (A) Visualization of FITC-RMS-P3 peptide binding in normal and cancer cells in vitro. Cultured myoblasts (SkMC-c), fibroblasts (MRC-5), RMS cells (RD) and breast carcinoma cells (MDA-MB 231) were incubated with 100 nM FITC-RMS-P3 peptide for 1 h at 37°C. Fluorescence microscopy of fixed cells is shown. (B) Living RD cells were incubated with FITC-RMS-P3 peptide, subsequently fixed and stained with giantin (red). Colocalization is shown in the merged picture by yellow. Blue staining (DAPI) indicates the nuclei. Magnifications: 40x, scale bars: 20 µm. (C) Distribution of FITC-RMS-P3 and control peptide FITC-RMS-Pctrl in mice xenografts of RD cells. FITC-RMS-P3 or control FITC-RMS-Pctrl peptide were injected i.v. and after 10 minutes of circulation, mice were perfused and tumor and control organs were collected. Cryosections were double-labeled with mouse endothelial vessels markers CD31 and MECA-32 (red). Nuclear staining by DAPI is shown in blue. Magnifications: 40x, scale bars: 20 µm.
Figure 3 Identification of the receptor for RMS-P3. (A) Alanine-scan of the RMS-P3 sequence. RMS-P3 was mutated by replacing each amino acid residue with alanine (codon GCT). All phage mutants were tested individually for binding to RD cells in vitro. Mutated residues are indicated in bold. Phage binding was quantified over non-recombinant T7 and compared to the binding of wild type phage RMS-P3. Depicted are mean values ± SD of three independent experiments. […] (B) FITC-RMS-P3/RR and FITC-RMS-P3/AA distribution in RD xenograft mice. After tail vein injection of both FITC-RMS-P3/RR or control peptide RMS-P3/AA and circulation of 10 min, mice were perfused, tumors and control organs were dissected and FITC-peptide distribution (green) was evaluated in cryosections under fluorescence microscopy. Blood endothelial stainings (CD31 and MECA32) are shown in red, nuclear staining in blue (DAPI). Magnification: 20x, scale bar 50 µm. (C) Expression of proprotein convertases (PCs) measured by microarray profiling of 9 RMS cell lines and 30 RMS biopsy samples. Expression of PCs recognizing the cleavage site R(X)(R/K)(R/K) were considered. Each cell line or biopsy is represented by one data point. (D) Furin expression in different cell lines. Normal myoblasts (SkMC-c), fibroblasts (MRC-5), RMS cell lines (RD, Rh4, Rh30), furin-deficient colorectal carcinoma cells (LoVo) and furin-positive breast carcinoma cells (MBA-MB 231) were tested for furin expression by qRT-PCR (upper graph). […] Western blot (lower panels). Immature membrane-bound furin was detected at 103 kD, mature furin at 97 kD. PCNA was used as loading control.
Figure 6 FITC-RMS-P3/RR and FITC-RMS-P3/AA distribution in mice bearing RD xenografts. Peptides were injected i.v. and after circulation the mice were perfused, tumors and control organs were removed and peptide distribution was evaluated on cryosections by fluorescence microscopy. Depicted are overlay images (B, upper left panel) and single channel pictures. FITC-peptide stainings (green), either furin or endothelial stainings (CD31, MECA32) in red and cell nuclei in blue (DAPI) are shown. Magnification: 40x, scale bars 50 µm.
Supplementary file pone.0010445.s002.tif: Figure S2 Subcellular localization of FITC-RMS-P3 peptide. (A, B) FITC-RMS-P3/RR cell surface and intracellular localization. RD cells were incubated with 100 nM FITC-RMS-P3 peptide in vitro for 30 min at 4°C (A) or 37°C (B), respectively. Fixed cells were stained with undiluted 5.1H11 hybridoma supernatant against the human muscle-specific cell surface antigen N-CAM (red). A secondary rabbit anti-mouse Cy3 antibody (1∶300, Invitrogen) was used for detection. […] Cell nuclei were visualized with DAPI. Nuclei are indicated in grey. Magnification: 63x, scale bars: 20 µm. […]

The next data set relates to membrane-bound furin. In words: peptide affinity chromatography, RD-FUR lysate. The data set is classed as binding. The settings on record: western blot, 97kDa. On the procedure:
(§1) Figure 5 RMS-P3/RR peptide binds directly to furin and inhibits its activity. Lysates of RD-FUR cells (approximately 1 mg of total protein, upper rows) or purified recombinant furin (250 ng; lower rows) were loaded on a RMS-P3/RR column (A) or on the control peptide column RMS-P3/AA (B). The columns were washed 10 times to remove unbound furin. The loaded RMS-P3/RR-column was eluted first with control peptide RMS-P3/AA, then with peptide RMS-P3/RR. The RMS-P3/AA column was eluted first with RMS-P3/RR and subsequently cross-eluted with the control peptide RMS-P3/AA. The presence of furin in aliquots from the columns (1) after binding, (2) flow through, (3) last wash, (4) control elution and (5) competitive elution with RMS-P3/RR (in A) and […] (in B), respectively, was detected by western blotting. (C) Fixed amounts of recombinant furin (3.3U) were incubated with increasing concentrations of RMS-P3/RR peptide or with control peptide (RMS-P3/AA). Furin activity was measured with the fluorogenic substrate Boc-RRVR-AMC at excitation 370 nm/emission 460 nm. The results of three independent experiments ± SD are shown.
(§2) RMS-P3/RR or control peptide RMS-P3/AA were dissolved in 0.2 M phosphate buffer pH 7.2 to 1 mg/ml and covalently linked to NHS-activated sepharose matrix SpinTrapTM (GE Healthcare, Amersham Biosciences, Switzerland). […]

Data set [2] deals with recombinant human furin. In words: peptide affinity chromatography, recombinant furin. The data set is classed as binding. The settings on record: recombinant human furin without membrane-domain (81 kD), overnight at 4°C, western blot. How it is done:
as §1, §2

The next data set relates to MRC-5-FUR cells. In words: FITC-RMS-P3/RR binding to furin-transfected fibroblasts. Format: cell-based. To be noted: 100 nM, 1h at RT. On the procedure: Figure 4 RMS-P3/RR phage binding correlates with furin expression levels. (A) Binding of phage RMS-P3/RR to untransfected (MRC-5), furin-overexpressing (MRC-FUR) and empty vector transfected MRC-5 fibroblasts (MRC-EV) was tested in vitro. Phage binding was quantified over control T7. Results of three independent experiments ± SD are shown. Western blot of the same samples for furin expression and PCNA as loading control (A, lower panels) (B) Micrographs of MRC-5 fibroblasts (upper row) and MRC-5-FUR (lower row) cells incubated with 100 nM FITC-RMS-P3/RR (green) for 1h at RT, fixed and stained with the anti-furin-antibody Mon-152 (red). Nuclei are visualized by DAPI staining (blue). Yellow indicates overlap of the two stainings. Magnification: 40x; scale bars: 20 µm. (C) Inhibition of furin maturation in α1-PDX-transfected RD cells reduces phage binding. Phage RMS-P3/RR binding to untransfected RD, furin-inhibited RD-PDX and empty-vector transfected RD-EV cells was determined over non-recombinant T7 in three independent experiments (means ± SD). Expression of the inhibitor α1-PDX was confirmed by western blotting using 100 µg cell extract with antiserum against α1AT (C, lower panels). (D) Effect of the specific PC-inhibitor Dec-RVKR-cmk on phage RMS-P3/RR binding. […] Phage binding was calculated over T7. […]

In data set [3] the test system is recombinant human furin. Briefly: furin activity, fluorogenic substrate Boc-RRVR-AMC. Format: biochemical.
Method: The enzymatic activity of furin was determined by the cleavage of the fluorogenic substrate Boc-RRVR-AMC (Alexis biochemicals) in presence or absence of peptides. Human recombinant furin (3.3U for reaction; Alexis biochemicals) was preincubated for 15 minutes at RT with the peptide RMS-P3/RR or the peptide RMS-P3/AA as negative control at increasing concentrations. For each assay, the same concentration of substrate (100 µM) was added to a solution containing 50 mM Tris HCl with 1 mM CaCl2 (pH 7) in a total volume of 100 µl. The reaction was followed for 1h while measuring the fluorescence every 10 minutes in a spectrofluorometer at excitation 370 nm/emission 460 nm.
In data set [4] the target is recombinant human furin without membrane-domain (81 kD) (human) (UniProt P09958).
Where [5] appears, read: 10 min circulation, cryosections.

“Also recorded” adds a separate entry of the source. Positions of bridges follow the written chain, without caps; N, C: chain ends. No end group written: not given here. *: point of attachment. FITC = O=C1OC2(c3ccc(O)cc3Oc3cc(O)ccc32)c2ccc(NC(=S)*)cc21

With “CMGTINTATAAC (disulfide 1-12 (inferred)) [RMS-P3/AA]”, the “decrease in phage binding compared to RMS-P3” value in the data set on RD cells (alanine-scan, RD cells, three independent experiments, p<0.05) worked out at 70 fold. Also, the “peptide uptake in kidney” value in data set [1] (10 min circulation) is given as “found in the kidneys”. The “peptide accumulation in tumor” value in data set [1] (setting [5]) is reported as “did not accumulate in the tumor; also recorded: No fluorescence was detectable”. Also, in the data set on membrane-bound furin, the “furin in competitive eluate from peptide column” value is reported as “not the case”. Moreover, in the data set with recombinant human furin [2], the “binding of recombinant furin to peptide column” value is given as “did not bind recombinant furin”.

With “FITC-RMS-P3/RR ({FITC}-GGCMGTINTRTRRC; also: cyclic peptide, ring type and places not given here)”, in data set [1] (10 min circulation), the “peptide distribution to muscle” value is given as “not in control organs” and the “peptide uptake in kidney” value is “not in control organs”. In addition, the “peptide accumulation in tumor” value in data set [1] (setting [5]) is “Accumulation”. In data set [1] (10 min circulation, cryosections, listed as FITC-labeled RMS-P3/RR), the “peptide accumulation in tumor” value is “strong peptide fluorescence”. Also, the “colocalization with furin around blood vessels in tumor” value in data set [1] (cryosections) was “furin colocalized with peptide RMS-P3/RR fluorescence”. Moreover, the “penetration into the tumor” value in data set [1] (around blood vessels, cryosections) is reported as “about 30 µm”. Besides, the “colocalization of furin and FITC-peptide” value in the data set with MRC-5-FUR cells (anti-furin-antibody Mon-152) is recorded as “clear colocalization”. In addition, the “FITC-peptide binding to MRC-5-FUR cells” value in the data set on MRC-5-FUR cells (in contrast to untransfected cells) is on record as “strong peptide binding”.

Take “CMGTINTRTRRC (disulfide 1-12 (inferred)) [RMS-P3/RR]”: the “phage binding to RD cells compared to RMS-P3” value with RD cells (both Lys replaced by Arg, One-way ANOVA, Tukey Kramer HSD, p<0.05 vs all other alanine mutants) is reported as “no significant difference in binding to RD cells”. For the same molecule, the “furin in competitive eluate from peptide column” value with membrane-bound furin is listed as “competitive eluates contained detectable amounts of membrane-bound furin”. Also, in the data set with recombinant human furin [2], the “binding of recombinant furin to peptide column” value was “detected a furin band in the specific eluate”. Moreover, the furin activity remaining in the data set on recombinant human furin [3] (100 µM peptide, % of the control, furin 3.3U, 15 min preincubation RT, substrate 100 µM, 50 mM Tris HCl, 1 mM CaCl2, pH 7, three independent experiments) is reported as 14 % of the control. Also, the “effect on furin activity” value in the data set with recombinant human furin [3] (increasing concentrations) was “concentration dependent decrease of furin activity”.

B1: RMS-P3/RR peptide (peptide)
peptide: CMGTINTRTRRC
modifications: not fully specified (bridges); also: cyclic peptide, mode of cyclisation not given here
Take B1: in data set [4], the furin activity (cleavage of the fluorogenic substrate Boc-RRVR-AMC by 3.3U recombinant furin) with increasing concentrations of RMS-P3/RR (10-100 µM); activity left at 100 µM (% of the control) came to 14.
